Data taken from patent US20180194762A1 (Pharmacyclics LLC, priority 2017, published 2018).
Where two headings read alike, the source gives them in different places.

Tests used:
Type in all cases: biochemical
panel of kinases = molecular target: T1, panel of kinases (Homo sapiens, UniProt P51813); experiment: Inhibition of a panel of kinases (in vitro HotSpot kinase assay, 33P-ATP, 1 μM ATP), other kinases; conditions: BMX wild-type, read-out: BMX-WT IC50
T1 sequence (P51813 1-675): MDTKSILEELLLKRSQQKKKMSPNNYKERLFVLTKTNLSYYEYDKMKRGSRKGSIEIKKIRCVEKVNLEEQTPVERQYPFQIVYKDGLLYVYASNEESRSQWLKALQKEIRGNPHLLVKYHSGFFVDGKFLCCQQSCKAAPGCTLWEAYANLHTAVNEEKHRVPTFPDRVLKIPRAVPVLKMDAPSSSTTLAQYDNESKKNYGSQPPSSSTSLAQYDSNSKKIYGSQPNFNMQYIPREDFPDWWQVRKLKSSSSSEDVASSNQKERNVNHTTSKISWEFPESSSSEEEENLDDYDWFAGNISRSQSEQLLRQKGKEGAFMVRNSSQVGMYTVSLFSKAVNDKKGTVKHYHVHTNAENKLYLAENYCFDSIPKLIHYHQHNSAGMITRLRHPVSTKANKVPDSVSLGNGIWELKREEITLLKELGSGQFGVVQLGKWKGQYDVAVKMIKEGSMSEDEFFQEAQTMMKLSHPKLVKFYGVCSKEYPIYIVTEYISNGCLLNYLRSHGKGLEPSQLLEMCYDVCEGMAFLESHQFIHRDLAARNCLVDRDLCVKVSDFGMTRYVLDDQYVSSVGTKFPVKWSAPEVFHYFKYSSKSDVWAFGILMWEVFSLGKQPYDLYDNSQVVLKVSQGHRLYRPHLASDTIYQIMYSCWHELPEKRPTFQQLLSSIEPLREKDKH
Outline: (§1)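 Degree of kinase inhibition is determined in vitro using isolated enzymes, a matched substrate and radiolabelled ATP (1 μM).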

TEC = molecular target: T2, TEC (Homo sapiens, UniProt P42680); experiment: Inhibition of a panel of kinases (in vitro HotSpot kinase assay, 33P-ATP, 1 μM ATP); conditions: for IC50: HotSpot kinase assay, 1 μM ATP; for TEC/Btk: ratio of TEC IC50 to Btk IC50 (selectivity)
T2 sequence (P42680 1-631): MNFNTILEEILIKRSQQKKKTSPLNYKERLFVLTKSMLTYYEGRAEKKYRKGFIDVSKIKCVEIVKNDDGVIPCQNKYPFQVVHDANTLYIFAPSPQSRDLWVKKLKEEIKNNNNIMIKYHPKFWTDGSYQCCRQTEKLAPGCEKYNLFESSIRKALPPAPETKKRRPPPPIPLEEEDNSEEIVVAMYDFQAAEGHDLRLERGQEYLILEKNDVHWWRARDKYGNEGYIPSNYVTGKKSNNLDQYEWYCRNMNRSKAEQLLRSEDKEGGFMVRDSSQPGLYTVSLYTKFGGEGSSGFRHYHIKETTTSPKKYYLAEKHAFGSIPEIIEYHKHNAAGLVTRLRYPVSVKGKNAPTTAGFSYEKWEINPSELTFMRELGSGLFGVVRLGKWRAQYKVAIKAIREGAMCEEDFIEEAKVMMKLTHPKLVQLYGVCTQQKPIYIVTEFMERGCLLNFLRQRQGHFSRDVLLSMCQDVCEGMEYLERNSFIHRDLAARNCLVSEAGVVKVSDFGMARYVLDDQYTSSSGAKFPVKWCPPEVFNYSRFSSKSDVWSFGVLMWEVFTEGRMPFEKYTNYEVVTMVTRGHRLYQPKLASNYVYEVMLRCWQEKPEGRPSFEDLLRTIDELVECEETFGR
Outline: as §1

Btk = molecular target: T3, Btk (Homo sapiens, UniProt Q06187); experiment: Btk in vitro inhibitory activity (one of Method A TR-FRET, Method B electrophoretic mobility shift, Method C radiometric filter binding)
T3 construct: purified from insect cells as a full-length construct containing a N-terminal 6X-His tag; His6 (N); made in house; host or cells: insect cells (Method C)
Outline: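 Method A: TR-FRET with 0.5 nM Btk at [ATP]=Km, EDTA-quenched, 665/615 nm ratio; Ki(app) converted to IC50. Method B: 1 nM full-length His6 human BTK, 1 μM FAM peptide, pH 7.5, mobility-shift product/sum ratio, 12-point 4-parameter fit. Method C: radiometric filter binding, 8 nM His-tagged BTK, 0.2 mg/mL poly-Glu-Tyr.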

[1] = wild-type Btk, read-out: Btk-WT IC50
[2] = method is one of A, B or C, not stated which, read-out: IC50 values against Btk

T3 sequence (Q06187 whole entry): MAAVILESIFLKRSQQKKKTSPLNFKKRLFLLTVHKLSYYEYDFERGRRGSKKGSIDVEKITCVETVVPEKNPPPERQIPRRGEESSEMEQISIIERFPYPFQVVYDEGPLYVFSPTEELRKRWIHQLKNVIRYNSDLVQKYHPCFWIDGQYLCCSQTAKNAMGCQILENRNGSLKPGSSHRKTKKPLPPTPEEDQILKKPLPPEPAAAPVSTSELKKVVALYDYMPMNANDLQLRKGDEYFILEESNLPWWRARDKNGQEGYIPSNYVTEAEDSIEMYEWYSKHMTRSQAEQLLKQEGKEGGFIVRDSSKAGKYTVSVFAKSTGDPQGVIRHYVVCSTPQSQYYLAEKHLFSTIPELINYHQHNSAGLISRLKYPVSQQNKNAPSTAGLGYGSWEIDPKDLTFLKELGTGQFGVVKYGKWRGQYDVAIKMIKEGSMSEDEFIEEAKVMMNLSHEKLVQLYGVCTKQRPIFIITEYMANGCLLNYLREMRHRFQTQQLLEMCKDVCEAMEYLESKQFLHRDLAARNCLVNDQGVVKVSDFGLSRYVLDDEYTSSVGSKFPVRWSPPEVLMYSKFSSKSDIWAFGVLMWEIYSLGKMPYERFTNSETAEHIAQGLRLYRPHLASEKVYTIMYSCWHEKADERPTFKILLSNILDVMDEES

Structure (SMILES)	IC50 (panel of kinases) [nM]	IC50 (TEC) [nM]	IC50 (Btk; [1]) [nM]	TEC/Btk (TEC)	IC50 (Btk; [2]) [nM]
CC(C)(C)c1nc(C(=O)NC(C)(C)c2ccc(-c3ccnc4[nH]nc(N[C@@H]5CCNC5)c34)cc2)no1 [Example 122, 5-tert-butyl-N-{2-[4-(3-{[(3R)-pyrrolidin-3-yl]amino}-1H-pyraozlo[3,4-b]pyridin-4-yl)phenyl]propan-2-yl}-1,2,4-oxadiazole-3-carboxamide]	> 10000	> 10000	> 10000	–	–
CC(C)(C)c1nc(NC(=O)Cc2ccc(-c3ccnc4[nH]nc(N[C@@H]5CCNC5)c34)cc2F)no1 [Example 123, N-(5-tert-butyl-1,2,4-oxadiazol-3-yl)-2-[2-fluoro-4-(3-{[(3R)-pyrrolidin-3-yl]amino}-1H-pyrazolo[3,4-b]pyridin-4-yl)phenyl]acetamide]	> 10000	> 10000	> 10000	–	–
CC(C)(C)c1nc(C(=O)NCc2ccc(-c3ccnc4[nH]nc(NC5CNC5)c34)cc2F)no1 [Example 124, N-[(4-{3-[(azetidin-3-yl)amino]-1H-pyrazolo[3,4-b]pyridin-4-yl}-2-fluorophenyl)methyl]-5-tert-butyl-1,2,4-oxadiazole-3-carboxamide]	3350	843	0.828	1018	< 10
C[C@@H]1[C@H](Nc2n[nH]c3nccc(-c4ccc(CNC(=O)c5noc(C(C)(C)C)n5)c(F)c4)c23)CCCN1C(=O)N(C)C [Example 125, (2R,3R)-3-{[4-(4-{[(5-tert-butyl-1,2,4-oxadiaozl-3-yl) formamido]methyl}-3-fluorophenyl)-1H-pyrazolo[3,4-b]pyridin-3-yl]amino}-N,N,2-trimethylpiperidine-1-carboxamide]	> 10000	> 10000	89.3	>100	–
C[C@@H]1[C@H](Nc2n[nH]c3nccc(-c4ccc(CNC(=O)c5noc(C(C)(C)C)n5)c(F)c4)c23)CCCN1C(=O)C1CC1 [Example 126, 5-tert-butyl-N-{[4-(3-{[(2R,3R)-1-cyclopropanecarbonyl-2-methylpiperidin-3-yl]amino}-1H-pyrazolo[3,4-b]pyridin-4-yl)-2-fluorophenyl]methyl}-1,2,4-oxadiazole-3-carboxamide]	5450	4430	38.4	115	–
C[C@H]1CC[C@@H](Nc2n[nH]c3nccc(-c4ccc(CNC(=O)c5noc(C(C)(C)C)n5)c(F)c4)c23)CN1C(=O)C1CC1 [Example 127, 5-tert-butyl-N-{[4-(3-{[(3R,6S)-1-cyclopropanecarbonyl-6-methylpiperidin-3-yl]amino}-1H-pyrazolo[3,4-b]pyridin-4-yl)-2-fluorophenyl]methyl}-1,2,4-oxadiazole-3-carboxamide]	1550	698	2.05	340	< 10
C[C@H]1CC[C@@H](Nc2n[nH]c3nccc(-c4ccc(CNC(=O)c5noc(C(C)(C)C)n5)c(F)c4)c23)CN1S(=O)(=O)C1CC1 [Example 128, 5-tert-butyl-N-{[4-(3-{[(3R,6S)-1-(cylcopropanesulfonyl)-6-methylpiperidin-3-yl]amino}-1H-pyrazolo[3,4-b]pyridin-4-yl)-2-fluorophenyl]methyl}-1,2,4-oxadiazole-3-carboxamide]	1120	500	1.29	388	< 10
CC(C)(C)c1nc(C(=O)NCc2ccc(-c3ccnc4[nH]nc(N[C@@H]5CCNC5)c34)c(F)c2)no1 [Example 129, 5-tert-butyl-N-{[3-fluoro-4-(3-{[(3R)-pyrrolidin-3-yl]amino}-1H-pyrazolo[3,4-b]pyridin-4-yl)phenyl]methyl}-1,2,4-oxadiazole-3-carboxamide]	> 10000	> 10000	85.9	>100	–
CCC(=O)N1CC(Nc2n[nH]c3nccc(-c4ccc(CNC(=O)c5noc(C(C)(C)C)n5)c(F)c4)c23)C1 [Example 130, 5-tert-butyl-N-[(2-fluoro-4-{3-[(1-propanoylazetidin-3-yl)amino]-1H-pyrazolo[3,4-b]pyridin-4-yl}phenyl)methyl]-1,2,4-oxadiazole-3-carboxamide]	3580	1330	1.28	1039	< 10
CC#CC(=O)N1CC(Nc2n[nH]c3nccc(-c4ccc(CNC(=O)c5noc(C(C)(C)C)n5)c(F)c4)c23)C1 [Example 131, N-{[4-(3-{[1-(but-2-ynoyl)azetidin-3-yl]amino}-1H-pyrazolo[3,4-b]pyridin-4-yl)-2-fluorophenyl]methyl}-5-tert-butyl-1,2,4-oxadiazole-3-carboxamide]	152	106	0.201	527	< 10
CN(C)C(=O)N[C@@H]1CCN(c2n[nH]c3nccc(-c4ccc(CNC(=O)c5noc(C(C)(C)C)n5)c(F)c4)c23)C1 [Example 132, 5-tert-butyl-N-[(4-{3-[(3R)-3-[(dimethylcarbamoyl)amino]pyrrolidin-1-yl]-1H-pyrazolo[3,4-b]pyridin-4-yl}-2-fluorophenyl)methyl]-1,2,4-oxaidazole-3-carboxamide]	1280	806	0.889	907	< 10
C=CC(=O)N1CCC[C@@H](Nc2n[nH]c3nccc(-c4ccc(C5(NC(=O)c6noc(C(C)(C)C)n6)CC5)c(F)c4)c23)C1 [Example 133, 5-tert-butyl-N-{1-[2-fluoro-4-(3-{[(3R)-1-(prop-2-enoyl)piperidin-3-yl]amino}-1H-pyrazolo[3,4-b]pyridin-4-yl)phenyl]cyclopropyl}-1,2,4-oxadiazole-3-carboxamide]	111	259	0.785	330	–
C=CC(=O)N1CC[C@@H](Nc2n[nH]c3nccc(-c4ccc(C(C)(C)NC(=O)c5noc(C(C)(C)C)n5)cc4)c23)C1 [Example 134, 5-tert-butyl-N-{2-[4-(3-{[(3R)-1-(prop-2-enoyl)pyrrolidin-3-yl]amino}-1H-pyrazolo[3,4-b]pyridin-4-yl)phenyl]propan-2-yl}-1,2,4-oxadiazole-3-carboxamide]	224	348	1.38	252	< 10
C=CC(=O)N1CC[C@@H](Nc2n[nH]c3nccc(-c4ccc(CC(=O)Nc5noc(C(C)(C)C)n5)c(F)c4)c23)C1 [Example 135, N-(5-tert-butyl-1,2,4-oxadiazol-3-yl)-2-[2-fluoro-4-(3-{[(3R)-1-(prop-2-enoyl)pyrrolidin-3-yl]amino}-1H-pyrazolo[3,4-b]pyridin-4-yl)phenyl]acetamide]	226	475	8.87	54	< 10
C[C@H]1CC[C@@H](Nc2n[nH]c3nccc(-c4ccc(CNC(=O)c5noc(C(C)(C)C)n5)c(F)c4)c23)CN1C(=O)NCC(F)(F)F [Example 138, (2S,5R)-5-{[4-(4-{[(5-tert-butyl-1,2,4-oxadiazol-3-yl)formamido]methyl}-3-fluorophenyl)-1H-pyrazolo[3,4-b]pyridin-3-yl]amino}-2-methyl-N-(2,2,2-trifluoroethyl)piperidine-1-carboxamide]	> 10000	> 10000	> 10000	–	–
